Source: patent US20220125837A1, “METHODS FOR CONTROLLED ELIMINATION OF THERAPEUTIC CELLS” (Bellicum Pharmaceuticals, Inc., priority 2014, published 2022)
Values joined by “and” are separate entries in the source; they are usually repeats but may differ in a detail not shown here. Equal entries are not always repeated.

Legend:
[1] = system: gene-modified allodepleted cells (SFG.iCasp9.2A.CD19); assay: Suicide gene function after extended culture and reactivation; assay type: cell-based, human
Experimental: Cells were maintained in T cell medium containing 50 U/ml IL-2 until 22 days after transduction. A portion of cells was reactivated on 24-well plates coated with […] OKT3 and 1 μg/ml anti-CD28 (Clone CD28.2, BD Pharmingen, San Jose, Calif.) for 48 to 72 hours. CD19 expression and suicide gene function in both reactivated and non-reactivated cells were measured on day 24 or 25 post transduction.
To assess the stability of transgene expression and function, cells were maintained in T cell culture medium and low dose IL-2 (50 U/ml) until […] after transduction. A portion of cells was then reactivated with OKT3/anti-CD28. CD19 expression was analyzed by flow cytometry 48 to 72 hours later, and suicide gene function was assessed by treatment with 10 nM AP20187. The obtained are for cells from day 5 post transduction (ie, 1 day after CD 19 selection) and day 24 post transduction, with or without 48-72 hours of reactivation (5 experiments). In 2 experiments, CD25 selection was performed after OKT3/aCD28 activation to further enrich activated cells. Error bars represent standard deviation. * indicates p<0.05 when compared to cells from day 5 post transduction. By day 24, surface CD19 expression fell from about 98%±1% to about 88%±4% (p<0.05) with a parallel decrease in mean fluorescence intensity (MFI) from 793±128 to 478±107 (p<0.05) (see FIG. 13B). Similarly, there was a significant reduction in suicide gene function: residual viability was 19.6±5.6% following treatment with AP20187; after correction for baseline viability of 54.8±20.9%, this equated to killing efficiency of only 63.1±6.2%.
To determine whether the decrease in transgene expression with time was due to reduced transcription following T cell quiescence or to elimination of transduced cells, a portion of cells were reactivated on day 22 post transduction with OKT3 and anti-CD28 antibody. […] CD19 expression increased from about 88%±4% to about 93%±4% (p<0.01) and CD19 MFI increased from 478±107 to 643±174 (p<0.01). […] 2±1.2%, which was the same as killing efficiency on day 5 post transduction (93.1±3.5%). Killing of the CD25 negative fraction was 78.6±9.1%.

[2] = system: iCasp9M.IRES.GFPhigh-transduced CTLs; assay: SCID mouse-human xenograft: elimination of iCasp9M CTLs by CID; assay type: in vivo, NOD/SCID mice; conditions: single dose of CID (50 μg AP20187 intraperitoneally), three days after
Experimental: Non-obese diabetic severe combined immunodeficient (NOD/SCID) mice, 6 to 8 weeks of age, were irradiated (250 rad) and injected subcutaneously in the right flank with 10×10^6 to 15×10^6 LCLs resuspended in Matrigel (BD Bioscience). Two weeks later mice bearing tumors that were approximately 0.5 cm in diameter were injected into the tail vein with a 1:1 mixture of nontransduced and iCasp9.I.GFPhigh-transduced EBV CTLs (total 15×10^6). At 4 to 6 hours prior and 3 days after CTL infusion, mice were injected intraperitoneally with recombinant hIL-2 (2000 U; Proleukin; Chiron). […] By FACS analysis, the number of GFP+ cells within the gated CD3^+ population was evaluated. […]
The function of iCasp9M also was evaluated in transduced EBV-CTLs in vivo. […] Three days after CID/carrier administration, tumors were analyzed for human CD3^+/GFP^+ cells. […]
The function of iCasp9M in vivo, was assayed. […] On day 3 after CTL administration, mice received either CID (50 μg AP20187; (black diamonds, n=6) or carrier only (black squares, n=5) and on day 6 the presence of human CD3+/GFP+ T cells in the tumors was analyzed. Human CD3+ T cells isolated from the tumors of a control group of mice that received only nontransduced CTLs (15×10^6 CTLs; n=4) were used as a negative control for the analysis of CD3+/GFP+ T cells within the tumors.

[3] = system: non-transduced cells; assay: Viability of non-transduced cells with AP20187; assay type: cell-based, human; conditions: n=6
Experimental: Suicide gene functionality was assessed by adding a small molecule synthetic homodimerizer, AP20187 (Ariad Pharmaceuticals; Cambridge, Mass.), at 10 nM final concentration the day following CD19 immunomagnetic selection. Cells were stained with annexin V and 7-amino-actinomycin (7-AAD)(BD Pharmingen) at 24 hours and analyzed by flow cytometry. Cells negative for both annexin V and 7-AAD were considered viable, cells that were annexin V positive were apoptotic, and cells that were both annexin V and 7-AAD positive were necrotic. The percentage killing induced by dimerization was corrected for baseline viability as follows: Percentage killing=100%−(% Viability in AP20187-treated cells÷% Viability in non-treated cells).
The day following immunomagnetic selection, 10 nM of the chemical inducer of dimerization, AP20187, was added to induce apoptosis, which appeared within 24 hours.

[4] = system: iCasp9-transduced MSCs; assay: Apoptosis of iCasp9-ΔCD19 transduced undifferentiated MSCs after CID (annexin V/7-AAD)
[5] = system: MT-2 cells; assay: CID-induced apoptosis (annexin V) in transduced MT-2 cells; assay type: cell-based, human; conditions: 10 nM CID for 8 hours

CC[C@H](C(=O)N1CCCC[C@H]1C(=O)O[C@H](CCc1ccc(OC)c(OC)c1)c1cccc(OCC(=O)NCC(CNC(=O)COc2cccc([C@@H](CCc3ccc(OC)c(OC)c3)OC(=O)[C@@H]3CCCCN3C(=O)[C@@H](CC)c3cc(OC)c(OC)c(OC)c3)c2)CN(C)C)c1)c1cc(OC)c(OC)c(OC)c1 [AP20187]
killing ([1]; CD25 negative fraction): 78.6±9.1%
killing efficiency ([1]; OKT3/aCD28-reactivated cells, day 24 or 25): ~84.6%±8.0%
killing efficiency ([1]; day 5 post transduction): 93.1±3.5%
killing efficiency ([1]; day 24 post transduction, non-reactivated): 63.1±6.2% and ~63.1%±6.2%
residual viability following treatment with AP20187 ([1]; day 24 post transduction, non-reactivated, 10 nM): 19.6±5.6%
reduction in the number of human CD3+/GFP+ T cells in tumors vs carrier ([2]; listed as CID): > 99%
reduction in the number of human CD3+/GFP+ T cells in tumors vs carrier ([2]; listed as dimerizer): more than 99%
viability of non-transduced cells with AP20187 [3]: about 86%±9%
apoptosis index of iCasp9-negative cells ([4]; 50 nM CID, 24 hrs): 20±7%
annexin positive, negative population (iCasp neg/CID) ([4]; 50 nM CID, representative FACS): 19%
annexin positive, non-transduced control MSC (Control/CID) ([4]; 50 nM CID, representative FACS): 15%
apoptotic death of iCasp9-positive cells ([4]; 50 nM CID, within 24 hrs): 93±1%
immunoselected iCasp9-CD19-positive cells apoptotic after CID ([4]; magnetic immunoselection): More than 95%
apoptosis (annexin-V staining) ([5]; iCasp9M-transduced MT-2): 57.9%+/−11.9%
apoptosis (annexin-V staining) ([5]; iFas-transduced MT-2): 19.3%+/−8.4%
